Test systems include MDA-N; HOP-92; K562; OVCAR-5; RXF 393; HL-60; A549; SK-OV-3; SF-295; M14; HT-29; 786-0; A498; IGROV-1; RPMI-8226; Hs-578T; LOX IMVI; SF-268; COLO 205; UACC-257.
What all share (test): NCI-60 cell line screen, 48 h

The structures appear in SMILES notation.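 Following 48 hours of exposure in 96-well plates, responses at five concentrations were used to interpolate endpoints linearly. The concentration for 50% growth inhibition is given as GI50.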 The source made the active and inactive calls. No stated cut-off is given here; in the data, active = GI50 up to about 1.1 µM and inactive = higher. Bounds are passed on as bounds.

For `C=C(Br)CNC(=O)Nc1ccc(Cl)c(Cl)c1`, the GI50 was 27.3 µM (inactive) in the test on MDA-N; 19.9 µM (inactive) with HOP-92; 23.8 µM (inactive) in the test on K562; 33.1 µM (inactive) with OVCAR-5; 18.5 µM (inactive) in the test on RXF 393; 15.9 µM (inactive) in the test on HL-60. Moreover, the GI50 in the test on A549 is 21.5 µM (inactive); in the test with SK-OV-3, 29 µM (inactive); in the test with SF-295 it was 26 µM (inactive); in the test on M14, 22.2 µM (inactive); in the test on HT-29, 25.1 µM (inactive); with 786-0, 16 µM (inactive). Also, the GI50 in the test with A498 is 9.12 µM (inactive); in the test with IGROV-1, 13.6 µM (inactive); with RPMI-8226, 17.3 µM (inactive); in the test with Hs-578T, 22.7 µM (inactive); with LOX IMVI it was 19.7 µM (inactive); in the test with SF-268, 27.3 µM (inactive). Further, the GI50 with COLO 205 was 16.9 µM (inactive).

Regarding `Cc1nnc2n1N=C(c1cc(F)c(Cl)cc1Cl)/C(=C/c1ccc3c(c1)OCO3)S2`, the GI50 in the test on UACC-257 was 71.1 µM (inactive); with MDA-N, 39.3 µM (inactive); in the test on HOP-92 it was 65.8 µM (inactive); in the test on K562 it was > 100 µM (inactive); in the test with OVCAR-5, 32.1 µM (inactive); in the test with RXF 393 it was 51.3 µM (inactive). In addition, the GI50 with HL-60 was 40.4 µM (inactive); with A549 it was > 100 µM (inactive); in the test with SK-OV-3 it was > 100 µM (inactive); in the test with SF-295, 53.3 µM (inactive); with M14, > 100 µM (inactive); with HT-29 it was 36.1 µM (inactive). In addition, the GI50 with 786-0 is 47.4 µM (inactive); with A498, 45.5 µM (inactive); in the test on IGROV-1 it was 50.7 µM (inactive); with RPMI-8226, 43.6 µM (inactive); in the test on Hs-578T, 71.6 µM (inactive); with LOX IMVI, 33.1 µM (inactive). Further, the figures for the GI50 in the test on SF-268 and with COLO 205 were 88.9 µM (inactive) and > 100 µM (inactive), respectively.

Turning to `NC(=O)NC1C(c2ccccc2)=C1c1ccccc1`, the GI50 was 18.6 µM (inactive) in the test on UACC-257; 14.5 µM (inactive) in the test on MDA-N; 11.9 µM (inactive) in the test on HOP-92; 15.4 µM (inactive) in the test with K562; 23.2 µM (inactive) in the test with OVCAR-5; 3.41 µM (inactive) in the test on RXF 393. Moreover, the GI50 in the test on HL-60 was 31.6 µM (inactive); in the test with A549 it was 27.4 µM (inactive); in the test on SK-OV-3, 15.6 µM (inactive); with SF-295 it was 17.6 µM (inactive); with M14, 19.1 µM (inactive); in the test with HT-29, 21.7 µM (inactive). Besides, the GI50 is 22.4 µM (inactive) in the test on 786-0; 15 µM (inactive) in the test with A498; 12.7 µM (inactive) in the test with IGROV-1; 7.21 µM (inactive) in the test with RPMI-8226; 27.6 µM (inactive) with Hs-578T; 13.5 µM (inactive) with LOX IMVI. The GI50 in the test with SF-268 is 13.4 µM (inactive); with COLO 205, 13 µM (inactive).

For `CCN1C(=O)C(=C/C=C/C=C2/N(C)c3ccccc3C2(C)C)C(=O)N(CC)C1=S`, the GI50 was 56.1 µM (inactive) in the test with UACC-257; > 100 µM (inactive) in the test on MDA-N; > 100 µM (inactive) in the test on HOP-92; 58.6 µM (inactive) in the test with K562; > 100 µM (inactive) in the test with OVCAR-5; 39.6 µM (inactive) in the test on RXF 393. Moreover, the GI50 with HL-60 is > 100 µM (inactive); with A549, > 100 µM (inactive); in the test on SK-OV-3, 36.3 µM (inactive); in the test with SF-295, 61.5 µM (inactive); in the test with M14, > 100 µM (inactive); in the test with HT-29 it was 55.6 µM (inactive). For the same compound, the GI50 in the test with 786-0 was 42.2 µM (inactive); with A498, > 100 µM (inactive); with IGROV-1, > 100 µM (inactive); in the test with RPMI-8226 it was > 100 µM (inactive); in the test with Hs-578T, > 100 µM (inactive); with LOX IMVI, 21.5 µM (inactive). Moreover, the GI50 was 99.3 µM (inactive) in the test on SF-268 and > 100 µM (inactive) in the test with COLO 205.

For the compound `CN(C)NC1=NS(=O)(=O)c2cc3c(=O)n(C)[nH]c3cc2S1`, the GI50 with UACC-257, with MDA-N, in the test with HOP-92, in the test on K562, in the test with OVCAR-5 and with RXF 393 was > 10 µM (inactive) throughout. The GI50 in the test with HL-60, in the test on A549, in the test with SK-OV-3, in the test on SF-295, with M14 and with HT-29 was > 10 µM (inactive) each time. The GI50 with 786-0, in the test with A498, in the test on IGROV-1, with RPMI-8226, in the test on Hs-578T and in the test on LOX IMVI was > 10 µM (inactive) in each case. For the same compound, the GI50 in the test on SF-268 and in the test with COLO 205 was > 10 µM (inactive) each time.

As to `O=C(C=P(c1ccccc1)(c1ccccc1)c1ccccc1)c1ccc(-c2ccc(F)cc2F)cc1`, the GI50 in the test with UACC-257 is 2.72 µM (inactive); in the test on MDA-N it was 2.78 µM (inactive); with HOP-92 it was 2.19 µM (inactive); in the test with K562, 2.18 µM (inactive); with OVCAR-5, 2.96 µM (inactive); in the test with RXF 393, 2.64 µM (inactive). Also, the GI50 is 2.43 µM (inactive) with HL-60; 2.73 µM (inactive) in the test on A549; 2.83 µM (inactive) in the test on SK-OV-3; 3.15 µM (inactive) with SF-295; 2.42 µM (inactive) in the test on M14; 2.18 µM (inactive) in the test on HT-29. Also, the GI50 in the test on 786-0 is 3.56 µM (inactive); with A498, 2.64 µM (inactive); in the test on RPMI-8226, 1.87 µM (inactive); in the test on Hs-578T, 3.97 µM (inactive); with LOX IMVI, 2 µM (inactive); in the test with SF-268, 4.03 µM (inactive). In addition, in the test on COLO 205, the GI50 was 1.64 µM (inactive).

As for `COc1cc(C2c3cc4c(cc3OC(N3CCOCC3)C2C)OCO4)cc(OC)c1OC` (configuration not stated), the GI50 in the test with UACC-257 is 0.748 µM (active); in the test with MDA-N it was 0.148 µM (active); in the test with HOP-92, 0.7 µM (active); in the test on K562, 0.397 µM (active); in the test on OVCAR-5, 3.68 µM (inactive); in the test with RXF 393, 0.282 µM (active). The GI50 in the test on HL-60 is 0.412 µM (active); in the test with A549 it was 1.56 µM (inactive); in the test with SK-OV-3, 3.27 µM (inactive); with SF-295, 0.519 µM (active); with M14, 0.708 µM (active); in the test on HT-29, 0.237 µM (active). For the same compound, the GI50 in the test with 786-0 was 3.18 µM (inactive); with A498 it was 0.743 µM (active); with IGROV-1, 1.31 µM (inactive); in the test on RPMI-8226 it was 0.778 µM (active); in the test on Hs-578T, 0.226 µM (active); in the test with LOX IMVI, 1.57 µM (inactive). For the same compound, the GI50 in the test with SF-268 was 10.5 µM (inactive).

As for `NC(CC(=O)Nc1cc(C(F)(F)F)ccc1Cl)=NO`, the GI50 in the test on UACC-257, in the test on MDA-N, in the test with HOP-92, in the test with K562, in the test with OVCAR-5 and in the test on RXF 393 was > 100 µM (inactive) each time. The GI50 in the test with HL-60, in the test with A549, in the test on SK-OV-3, in the test on SF-295, in the test on M14 and with HT-29 was > 100 µM (inactive) in each case. The GI50 with 786-0, with A498, with IGROV-1, in the test on RPMI-8226, in the test with Hs-578T and in the test with LOX IMVI was > 100 µM (inactive) each time. The GI50 in the test with SF-268 and in the test with COLO 205 was > 100 µM (inactive) in each case.

For the compound `Nc1ccc(S2(c3ccc(N)cc3)C=C(c3ccccc3)C(c3ccccc3)=C2)cc1`, the GI50 was > 54.5 µM (inactive) in the test with UACC-257; > 30.2 µM (inactive) in the test on MDA-N; 18.1 µM (inactive) with HOP-92; > 46.9 µM (inactive) in the test on K562; > 65.6 µM (inactive) in the test with OVCAR-5; > 26.9 µM (inactive) with RXF 393. The GI50 with HL-60 is > 100 µM (inactive); in the test on A549, > 29.4 µM (inactive); with SK-OV-3, > 26.9 µM (inactive); in the test on SF-295, 16.4 µM (inactive); with M14, > 72.8 µM (inactive); with HT-29, > 44.7 µM (inactive). Also, the GI50 in the test on 786-0 was 24 µM (inactive); with A498, > 29.4 µM (inactive); in the test with IGROV-1, > 100 µM (inactive); with RPMI-8226, > 64 µM (inactive); in the test with Hs-578T, > 100 µM (inactive); in the test on LOX IMVI it was > 33.5 µM (inactive). Moreover, the GI50 in the test on SF-268 is > 44.5 µM (inactive); in the test with COLO 205, > 45 µM (inactive).

Regarding `C/C(=N/NC(=S)N(C)CCc1ccccn1)c1cnccn1`, the GI50 in the test with UACC-257 is < 0.015 µM (active); with MDA-N, 0.828 µM (active); in the test with HOP-92 it was 3.35 µM (inactive); in the test with K562 it was < 0.01 µM (active); in the test on OVCAR-5, 0.516 µM (active); in the test with RXF 393 it was 0.465 µM (active). Also, the GI50 was < 0.01 µM (active) in the test with HL-60; 0.078 µM (active) in the test with A549; 0.0235 µM (active) with SK-OV-3; 0.177 µM (active) in the test with SF-295; < 0.01 µM (active) in the test with M14; < 0.01 µM (active) in the test on HT-29. Also, the GI50 with 786-0 is 0.0977 µM (active); in the test on A498, 17.7 µM (inactive); in the test on IGROV-1 it was < 0.01 µM (active); in the test with RPMI-8226 it was < 0.01 µM (active); in the test on Hs-578T it was 2.63 µM (inactive); in the test on LOX IMVI, < 0.01 µM (active). For the same compound, the GI50 in the test with SF-268 and in the test on COLO 205 was < 0.01 µM (active) each time.

The values are drawn from ChEMBL document CHEMBL1201862, “PubChem BioAssay data set” (2004).
